The record followed here is patent EP0164204A1, “Novel pharmaceutically useful pyrimidines” (FISONS plc, priority 1984, dated 1985).

The subject of the test is immune response to oxazolone. As to the kind of experiment: Rescue of the cyclophosphamide-inhibited delayed contact response to oxazolone in mice (Example A, b). Particulars: Mus musculus, ip, 48 h; cyclophosphamide alone, 200mg/kg intraperitoneal, two days after sensitisation with oxazolone; C57B1 mice. It counts as in vivo.

`O=P1(N(CCCl)CCCl)NCCCO1` (stereo not shown) [cyclophosphamide]: the inhibition at 200 mg/kg was 64%.

By inhibition is commonly meant how much of the control response was suppressed.
